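Compound exposure: 48 hours, 5 concentrations, 96-well plates. At the GI50, growth is halved.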 Active and inactive are the calls of the source. Cut-off read from the data, not from the text of the source: active = GI50 up to about 1.1 µM and inactive = higher.
Assays:
Test in all cases: NCI-60 cell line screen, 48 h
[1] = system: LXFL 529
[2] = system: M19-MEL
[3] = system: SNB-78
[4] = system: KM-20L2
[5] = system: DLD-1
[6] = system: HOP-18
[7] = system: RXF 631
[8] = system: BT-549
[9] = system: Hs-578T

Compound	GI50 [1]	GI50 [2]	GI50 [3]	GI50 [4]	GI50 [5]	GI50 [6]	GI50 [7]	GI50 [8]	GI50 [9]
CCCCCN(CCCCC)C(=O)[C@@H](CCC(=O)O)NC(=O)c1cc2ccccc2[nH]1	41.7 µM (inactive)	22.3 µM (inactive)	59.6 µM (inactive)	40.5 µM (inactive)	31.5 µM (inactive)				
CCCCC(C)C(OC(=O)CC(CC(=O)O)C(=O)O)C(CC(C)CC(O)CCCCC(O)CC(O)C(C)N)OC(=O)CC(CC(=O)O)C(=O)O (configuration not stated)	> 100 µM (inactive)	> 100 µM (inactive)		> 100 µM (inactive)	> 100 µM (inactive)	> 100 µM (inactive)	> 100 µM (inactive)		
O=C1CC(=O)N(CCc2ccccc2)S(=O)(=O)N1CCc1ccccc1	19.8 µM (inactive)	32.4 µM (inactive)			43.5 µM (inactive)	65.2 µM (inactive)			
O=C1CNC(=O)c2[nH]cnc2N1	> 100 µM (inactive)	> 100 µM (inactive)	> 100 µM (inactive)		> 100 µM (inactive)	> 100 µM (inactive)	39.9 µM (inactive)		
O=C(CC1(O)C(=O)Nc2c(Cl)ccc(Cl)c21)c1ccc2ccccc2c1 (configuration not stated)	10.2 µM (inactive)	2.65 µM (inactive)	14.5 µM (inactive)	7.08 µM (inactive)	17.9 µM (inactive)	12.9 µM (inactive)			
NNC(=O)/C(=C/c1ccc(Cl)cc1Cl)NC(=O)c1ccccc1	> 100 µM (inactive)	> 100 µM (inactive)	> 100 µM (inactive)		> 100 µM (inactive)	> 100 µM (inactive)			
CSCCC(C(=O)O)N(CC1(O)OCC(O)C(O)C1O)N=O (configuration not stated)	> 100 µM (inactive)	> 100 µM (inactive)	> 100 µM (inactive)	> 100 µM (inactive)	> 100 µM (inactive)		> 100 µM (inactive)		
CN1C(c2ccccc2)CS(=O)(=O)CS1(=O)=O (configuration not stated)	> 100 µM (inactive)	> 100 µM (inactive)	> 100 µM (inactive)	> 100 µM (inactive)	> 100 µM (inactive)	> 100 µM (inactive)	> 100 µM (inactive)		
N#CCC(=O)NC1C2CC3CC(C2)CC1C3 (configuration not stated)	28.1 µM (inactive)	24.5 µM (inactive)	20.5 µM (inactive)	18.2 µM (inactive)	20.2 µM (inactive)				
COc1cc2c[n+](C)c3c4ccccc4ccc3c2cc1OC.COc1cc2cnc3c4ccccc4ccc3c2cc1OC	2.21 µM (inactive)	3.85 µM (inactive)		8.81 µM (inactive)	31.3 µM (inactive)	23.3 µM (inactive)	23 µM (inactive)	6.85 µM (inactive)	2.31 µM (inactive)
CCN(CC)CCCNc1nccc2c(C)c3c(cc12)c1cnccc1n3C		0.48 µM (active)	0.807 µM (active)	0.0682 µM (active)	0.0244 µM (active)	< 0.01 µM (active)			
O=c1ncccn1[C@@H]1O[C@H](CO)[C@H](O)C1O (some centres not stated)	> 100 µM (inactive)	> 100 µM (inactive)	> 99.5 µM (inactive)	> 78 µM (inactive)	> 100 µM (inactive)	> 100 µM (inactive)			
CCc1ccccc1N1CCN(C(=O)c2cc(OC)c(OC)c(OC)c2)CC1		0.0647 µM (active)	0.262 µM (active)	0.0813 µM (active)	0.2 µM (active)			0.0361 µM (active)	0.0144 µM (active)
COC(=O)C1=C(C(=O)OC)N(C(C)C)[C@H]2C(C(=O)OC)=C(C(=O)OC)N(C(C)C)[C@@H]12	> 100 µM (inactive)	> 100 µM (inactive)	> 100 µM (inactive)	> 100 µM (inactive)	> 100 µM (inactive)	> 100 µM (inactive)	> 100 µM (inactive)		
COC1=CC(=O)c2ccc(C(C)C)cc2C1(C)C1=NC(C)(C)CO1 (configuration not stated)	> 100 µM (inactive)	> 100 µM (inactive)		> 100 µM (inactive)	> 100 µM (inactive)	> 100 µM (inactive)			
FC(F)(F)c1ccc2nc(Nc3ccc(Cl)c(Cl)c3)c(-c3ccccc3)nc2c1	8.3 µM (inactive)	48.5 µM (inactive)	27.4 µM (inactive)	55.7 µM (inactive)		> 100 µM (inactive)			
CN1C(=O)CC(c2cccc(C3CC(=O)N(C)C3=O)n2)C1=O (configuration not stated)	> 100 µM (inactive)	> 100 µM (inactive)	> 100 µM (inactive)	> 100 µM (inactive)	> 100 µM (inactive)	> 100 µM (inactive)			
[O-][Cl+3]([O-])([O-])[O-].c1ccc(-c2csc3c4ccccc4c4ccccc4[n+]23)cc1	1.84 µM (inactive)	1.61 µM (inactive)	2.08 µM (inactive)	5.53 µM (inactive)	5.58 µM (inactive)	14.3 µM (inactive)			
COC(=O)C(Cc1nc2ccc(Cl)cc2nc1O)C(=O)C(=O)Nc1cc(C)ccc1C (configuration not stated)	> 100 µM (inactive)	> 100 µM (inactive)	> 100 µM (inactive)	> 100 µM (inactive)	> 100 µM (inactive)	> 100 µM (inactive)	> 100 µM (inactive)		
CC(=O)NNc1nc(C)c(C(/C=C/c2ccc(/C=C/C(=N\NC(=O)c3ccncc3)c3sc(NNC(C)=O)nc3C)cc2)=N/NC(=O)c2ccncc2)s1	> 100 µM (inactive)	> 100 µM (inactive)	> 100 µM (inactive)	> 100 µM (inactive)	> 100 µM (inactive)				
CCOc1ccccc1N1C(=O)C(=O)C(c2nc3ccccc3o2)C(=O)C1=O	> 100 µM (inactive)	> 100 µM (inactive)	> 100 µM (inactive)	> 100 µM (inactive)	> 100 µM (inactive)	28.7 µM (inactive)	> 100 µM (inactive)		
CC(=O)Nc1[nH]c(=O)[nH]c(=O)c1N(C(C)=O)C(C)=O	> 100 µM (inactive)	> 100 µM (inactive)	> 100 µM (inactive)	> 100 µM (inactive)	> 100 µM (inactive)				
O=C1c2ccccc2C(=O)c2cc3c(cc21)C[S+]([O-])C3	> 100 µM (inactive)	> 100 µM (inactive)		> 100 µM (inactive)	> 100 µM (inactive)	> 100 µM (inactive)			
Clc1cc(Cl)cc(Nc2nc3ccccc3nc2-c2cccs2)c1	35.8 µM (inactive)	24.2 µM (inactive)	62.5 µM (inactive)	> 10 µM (inactive)	41.4 µM (inactive)	28.5 µM (inactive)	15.8 µM (inactive)		
C=CCC1=C2CCCCC2CCC1=O (configuration not stated)	> 100 µM (inactive)	> 100 µM (inactive)	> 100 µM (inactive)		> 100 µM (inactive)		> 100 µM (inactive)		
C=C(C)C1C/C=C(/C)CCCC2(CCC3=C(CC(C(=C)C)C/C=C(/C)CCC3)O2)C(=O)C1 (configuration not stated)	> 100 µM (inactive)	> 100 µM (inactive)	> 100 µM (inactive)	> 100 µM (inactive)	> 100 µM (inactive)	> 100 µM (inactive)			
O=C(O)CN(c1ccccc1)S(=O)(=O)c1ccc([N+](=O)[O-])cc1	> 100 µM (inactive)	> 100 µM (inactive)		> 100 µM (inactive)	> 100 µM (inactive)	> 100 µM (inactive)	> 100 µM (inactive)		

Reference: ChEMBL document CHEMBL1201862, “PubChem BioAssay data set” (2004)
